Test results: PMC10535864, “Novel Aminopyrimidine-2,4-diones, 2-Thiopyrimidine-4-ones, and 6-Arylpteridines as Dual-Target Inhibitors of BRD4/PLK1: Design, Synthesis, Cytotoxicity, and Computational Studies” (Pharmaceuticals, 2023)

How the values were obtained:
Format in all cases: cell-based
[1] = tested on: MDA-MB-231 breast cancer cells; assay: MTT cytotoxicity assay, MDA-MB-231; conditions: MDA-MB-231, MTT; for IC50 / viability at 0.312 µM / viability at 0.625 µM / viability at 1.25 µM / viability at 2.5 µM / viability at 5 µM / viability at 10 µM: Homo sapiens; for IC50: mean of three independent experiments ± SD, read-out: IC50 Value MDA-MB-231
Description: (§1) All newly synthetic compounds were tested for cytotoxicity using a six-dose MTT colorimetric assay on three cancer cell lines; namely, breast cancer cells (MDA-MB-231), colorectal adenocarcinoma cells (HT-29) and renal cancer cells (U-937). […] However, renal cancer cells (U-937) were discovered to be the least sensitive.
(§2) Using a six-dose MTT colorimetric assay, all new synthetic compounds were tested for cytotoxicity against three cancer cell lines: MDA-MB-231 breast cancer cells, HT-29 colorectal adenocarcinoma cells, and U-937 renal cancer cells. […] These cell lines were supplied by ATCC (American Type Culture Collection) via the Holding company for biological products and vaccines (VACSERA, Cairo, Egypt). The reference control used was Methotrexate. Detailed descriptions of the MTT colorimetric assay’s protocol can be found in the Supplementary file.
(§3) 1.1.In-vitro cytotoxicity screening
(§4) Using a six-dose MTT colorimetric assay, allnew synthetic compounds were tested for cytotoxicity against three cancer cell lines: MDA-MB-231 breast cancer cells,HT-29 colorectal adenocarcinoma cells, and U-937 renal […]
(§5) The cell lines were supplied by ATCC (American Type Culture Collection). The reference control used was Methotrexate. The cytotoxic activities of the examined compounds were quantified by inoculating a 96-well tissue culture plate with 1 X 10^5 cells / mL (100 uL/well) and incubating it at 37°C for 24 hours to develop a complete monolayer sheet. After forming a confluent sheet of cells, the growth medium was decanted from 96-well microtiter plates, and the cell monolayer was washed twice with wash media. Two-fold dilutions of tested samples were made in RPMI medium with 2% serum (maintenance medium), and 0.1 mL of each dilution was tested in different wells, with three wells serving as controls and receiving only maintenance medium. Following that, the plate was incubated at 37°C and examined. Cells were investigated for any physical signs of toxicity, such as partial or complete monolayer loss, rounding, shrinkage, or cell granulation. MTT solution was prepared (5mg/ml in PBS) (BIO BASIC CANADA INC), and 20 uL MTT solution was added to each well. After 5 minutes on a shaking table at150 rpm to thoroughly mix the MTT into the media, it was incubated (37°C, 5% CO2) for 4 hours to allow the MTT to be metabolized. Formazan (MTT metabolic product) was resuspended in 200 uL DMSO and shaken at 150 rpm for 5 minutes to thoroughly mix the formazan into the solvent. The optical density was measured at 560 nm, and the background was subtracted at 620 nm. Finally, the IC50 of the test compound in comparison to the reference was calculated using the GraphPad Prism software. […]

[2] = tested on: HT-29 colorectal adenocarcinoma cells; assay: MTT cytotoxicity assay, HT-29; conditions: MTT; for Toxicity % / viability at 0.312 µM / viability at 0.625 µM / viability at 1.25 µM / viability at 2.5 µM / viability at 5 µM / viability at 10 µM: HT29; for viability at 0.312 µM / viability at 0.625 µM / viability at 1.25 µM / viability at 2.5 µM / viability at 5 µM / viability at 10 µM / IC50: Homo sapiens, HT-29; for IC50: mean of three independent experiments ± SD, read-out: IC50 Value HT-29
Description: as §1, §2, §3, §4, §5

U-937 renal cancer cells = assay: MTT cytotoxicity assay, U-937; conditions: MTT; for IC50: Homo sapiens, U-937, mean of three independent experiments ± SD, read-out: IC50 Value U-937; for Toxicity %: U937;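 on all read-outs here: Six-dose MTT colorimetric assay on cell monolayers, formazan absorbance read at 560 nm with 620 nm background removed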
Description: (§6) Using a six-dose MTT colorimetric assay [44, 66], all new synthetic compounds were tested for cytotoxicity against three cancer cell lines: MDA-MB-231 breast cancer cells, HT-29 colorectal adenocarcinoma cells, and U-937 renal cancer cells. […] These cell lines were supplied by ATCC (American Type Culture Collection) via the Holding company for biological products and vaccines (VACSERA, Cairo, Egypt). The reference control used was Methotrexate.
(§7) Using a six-dose MTT colorimetric assay [44, 66], allnew synthetic compounds were tested for cytotoxicity against three cancer cell lines: MDA-MB-231 breast cancer cells,HT-29 colorectal adenocarcinoma cells, and U-937 renal
(§8) The cell lines were supplied by ATCC (American Type Culture Collection). The reference control used was Methotrexate. The cytotoxic activities of the examined compounds were quantified by inoculating a 96-well tissue culture plate with 1 X 10^5 cells / mL (100 uL/well) and incubating it at 37°C for 24 hours to develop a complete monolayer sheet. After forming a confluent sheet of cells, the growth medium was decanted from 96-well microtiter plates, and the cell monolayer was washed twice with wash media. Two-fold dilutions of tested samples were made in RPMI medium with 2% serum (maintenance medium), and 0.1 mL of each dilution was tested in different wells, with three wells serving as controls and receiving only maintenance medium. Following that, the plate was incubated at 37°C and examined. Cells were investigated for any physical signs of toxicity, such as partial or complete monolayer loss, rounding, shrinkage, or cell granulation. MTT solution was prepared (5mg/ml in PBS) (BIO BASIC CANADA INC), and 20 uL MTT solution was added to each well. After 5 minutes on a shaking table at150 rpm to thoroughly mix the MTT into the media, it was incubated (37C, 5% CO2) for 4 hours to allow the MTT to be metabolized. Formazan (MTT metabolic product) was resuspended in 200 uL DMSO and shaken at 150 rpm for 5 minutes to thoroughly mix the formazan into the solvent. The optical density was measured at 560 nm, and the background was subtracted at 620 nm. Finally, the IC50 of the test compound in comparison to the reference was calculated using the GraphPad Prism software.

[3] = MTT cytotoxicity assay, U-937; conditions: Homo sapiens, U-937, U937, MTT;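 further: Six-dose MTT colorimetric assay on cell monolayers, formazan absorbance read at 560 nm with 620 nm background removed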
Description: as §6, §7, §8

Row | Structure (SMILES) | IC50 [1] [µM] | viability at 0.312 µM ([1]; 0.312 uM) [%] | viability at 0.625 µM ([1]; 0.625 uM) [%] | viability at 1.25 µM ([1]; 1.25 uM) [%] | viability at 2.5 µM ([1]; 2.5 uM) [%] | viability at 5 µM ([1]; 5 uM) [%] | viability at 10 µM ([1]; 10 uM) [%] | Toxicity % ([1]; 0.312 uM) [%] | Toxicity % ([1]; 0.625 uM) [%] | Toxicity % ([1]; 1.25 uM) [%] | Toxicity % ([1]; 2.5 uM) [%] | Toxicity % ([1]; 5 uM) [%] | Toxicity % ([1]; 10 uM) [%] | Toxicity % ([2]; 0.312 uM) [%] | Toxicity % ([2]; 0.625 uM) [%] | Toxicity % ([2]; 1.25 uM) [%] | Toxicity % ([2]; 2.5 uM) [%] | Toxicity % ([2]; 5 uM) [%] | Toxicity % ([2]; 10 uM) [%] | viability at 0.312 µM ([2]; 0.312 uM) [%] | other results
1 | Nc1c(/N=C(/CBr)c2ccc([N+](=O)[O-])cc2)c(=O)[nH]c(=O)n1Cc1ccccc1 [Compound 5b, (E)-6-Amino-1-benzyl-5-((2-bromo-1-(4-nitrophenyl)ethylidene)amino)pyrimidine-2,4(1H,3H)-dione] | 2.37 ± 0.06 | 99.4 | 99.4 | 84.7 | 45.8 | 23.2 | 8.07 | 0.6206 | 0.5762 | 15.34 | 54.21 | 76.77 | 91.93 | 0 | 0.1292 | 6.891 | 27.39 | 74.68 | 88.24 | 100 | viability at 0.625 µM ([2]; 0.625 uM): 99.9%; viability at 1.25 µM ([2]; 1.25 uM): 93.1%; viability at 2.5 µM ([2]; 2.5 uM): 72.6%; viability at 5 µM ([2]; 5 uM): 25.3%; viability at 10 µM ([2]; 10 uM): 11.8%; IC50 [2]: 3.66 ± 0.05 µM; IC50 (U-937 renal cancer cells): 6.29 ± 0.26 µM; Toxicity % (U-937 renal cancer cells; 0.312 uM): 0.05447%; Toxicity % (U-937 renal cancer cells; 0.625 uM): 0.1089%; Toxicity % (U-937 renal cancer cells; 1.25 uM): 0.3813%; Toxicity % (U-937 renal cancer cells; 2.5 uM): 0.8715%; Toxicity % (U-937 renal cancer cells; 5 uM): 49.73%; Toxicity % (U-937 renal cancer cells; 10 uM): 83.71%; viability at 0.312 µM [3]: 99.9%; viability at 0.625 µM [3]: 99.9%; viability at 1.25 µM [3]: 99.6%; viability at 2.5 µM [3]: 99.1%; viability at 5 µM [3]: 50.3%; viability at 10 µM [3]: 16.3%
2 | CCn1c(N)c(/N=C(/CBr)c2ccc([N+](=O)[O-])cc2)c(=O)[nH]c1=O [Compound 5a, (E)-6-Amino-5-((2-bromo-1-(4-nitrophenyl)ethylidene)amino)-1-ethylpyrimidine-2,4(1H,3H)-dione] | 3.24 ± 0.03 | 99.7 | 99.6 | 91.2 | 53 | 23.8 | 4.21 | 0.266 | 0.4433 | 8.821 | 46.99 | 76.2 | 95.79 | 0.1292 | 0.2584 | 5.556 | 50.3 | 83.29 | 97.46 | 99.9 | viability at 0.625 µM ([2]; 0.625 uM): 99.7%; viability at 1.25 µM ([2]; 1.25 uM): 94.4%; viability at 2.5 µM ([2]; 2.5 uM): 49.7%; viability at 5 µM ([2]; 5 uM): 16.7%; viability at 10 µM ([2]; 10 uM): 2.54%; IC50 [2]: 3.09 ± 0.01 µM; IC50 (U-937 renal cancer cells): 6.08 ± 0.11 µM; Toxicity % (U-937 renal cancer cells; 0.312 uM): 0.4357%; Toxicity % (U-937 renal cancer cells; 0.625 uM): 1.144%; Toxicity % (U-937 renal cancer cells; 1.25 uM): 0.4357%; Toxicity % (U-937 renal cancer cells; 2.5 uM): 10.29%; Toxicity % (U-937 renal cancer cells; 5 uM): 44.93%; Toxicity % (U-937 renal cancer cells; 10 uM): 87.31%; viability at 0.312 µM [3]: 99.6%; viability at 0.625 µM [3]: 98.9%; viability at 1.25 µM [3]: 99.6%; viability at 2.5 µM [3]: 89.7%; viability at 5 µM [3]: 55.1%; viability at 10 µM [3]: 12.7%
3 | Nc1c(/N=C(/CBr)c2ccc([N+](=O)[O-])cc2)c(=O)[nH]c(=O)n1Cc1ccccc1Cl [Compound 5c, (E)-6-Amino-5-((2-bromo-1-(4-nitrophenyl)ethylidene)amino)-1-(2-chlorobenzyl) pyrimidine-2,4(1H,3H)-dione] | 3.28 ± 0.04 | 99.4 | 98.4 | 96.1 | 62.4 | 14.9 | 5.54 | 0.6206 | 1.551 | 3.901 | 37.63 | 85.06 | 94.46 | 0.1292 | 0.2153 | 6.417 | 59.99 | 93.84 | 94.36 | 99.9 | viability at 0.625 µM ([2]; 0.625 uM): 99.8%; viability at 1.25 µM ([2]; 1.25 uM): 93.6%; viability at 2.5 µM ([2]; 2.5 uM): 40%; viability at 5 µM ([2]; 5 uM): 6.16%; viability at 10 µM ([2]; 10 uM): 5.64%; IC50 [2]: 2.24 ± 0.04 µM; IC50 (U-937 renal cancer cells): 6.17 ± 0.15 µM; Toxicity % (U-937 renal cancer cells; 0.312 uM): 0.3268%; Toxicity % (U-937 renal cancer cells; 0.625 uM): 0.4902%; Toxicity % (U-937 renal cancer cells; 1.25 uM): 0.2723%; Toxicity % (U-937 renal cancer cells; 2.5 uM): 0.6536%; Toxicity % (U-937 renal cancer cells; 5 uM): 51.8%; Toxicity % (U-937 renal cancer cells; 10 uM): 85.73%; viability at 0.312 µM [3]: 99.7%; viability at 0.625 µM [3]: 99.5%; viability at 1.25 µM [3]: 99.7%; viability at 2.5 µM [3]: 99.3%; viability at 5 µM [3]: 48.2%; viability at 10 µM [3]: 14.3%
4 | Cn1c(SCC(=O)c2ccc([N+](=O)[O-])cc2)nc(=O)c(/N=C(/CBr)c2ccc([N+](=O)[O-])cc2)c1N [Compound 8, (E)-6-Amino-5-((2-bromo-1-(4-nitrophenyl)ethylidene)amino)-1-methyl-2-((2-(4-nitrophenyl)-2-oxoethyl)thio)pyrimidin-4(1H)-one] | 2.31 ± 0.06 | 97.6 | 95.3 | 83.8 | 43.7 | 35.9 | 35.4 | 2.394 | 4.743 | 16.18 | 56.29 | 64.1 | 64.58 | 0.08613 | 0.1292 | 0.5599 | 0.3876 | 50.34 | 77.91 | 99.9 | viability at 0.625 µM ([2]; 0.625 uM): 99.9%; viability at 1.25 µM ([2]; 1.25 uM): 99.4%; viability at 2.5 µM ([2]; 2.5 uM): 99.6%; viability at 5 µM ([2]; 5 uM): 49.7%; viability at 10 µM ([2]; 10 uM): 22.1%; IC50 [2]: 6.48 ± 0.08 µM; IC50 (U-937 renal cancer cells): 7.77 ± 0.04 µM; Toxicity % (U-937 renal cancer cells; 0.312 uM): 0.3813%; Toxicity % (U-937 renal cancer cells; 0.625 uM): 0.6536%; Toxicity % (U-937 renal cancer cells; 1.25 uM): 0.05447%; Toxicity % (U-937 renal cancer cells; 2.5 uM): 0.2179%; Toxicity % (U-937 renal cancer cells; 5 uM): 20.42%; Toxicity % (U-937 renal cancer cells; 10 uM): 72.39%; viability at 0.312 µM [3]: 99.6%; viability at 0.625 µM [3]: 99.3%; viability at 1.25 µM [3]: 99.9%; viability at 2.5 µM [3]: 99.8%; viability at 5 µM [3]: 79.6%; viability at 10 µM [3]: 27.6%
